Measured values from article PMC11571207, “Stereorandomized Oncocins with Preserved Ribosome Binding and Antibacterial Activity” (Journal of Medicinal Chemistry, 2024).
Where two headings read alike, the source gives them in different places. No end group written: not given here.

Columns and labels:
[1] = test system: E. cloacae; test: microbe, parasite or virus in culture; settings: for MIC E. cloacae, 12.5% MHB: 12.5% MHB pH 7.4; for MIC E. cloacae, 12.5% MHB / MIC E. cloacae, full MHB: 16–20 h at 37 °C; for MIC E. cloacae, full MHB: full MHB pH 7.4; for MIC E. cloacae: supplement CSV
Summary of the method: (§1)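 Minimal inhibitory concentrations come from broth microdilution in MH medium, with a top peptide concentration of 64 μg/mL halved serially.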

[2] = test system: K. pneumoniae OXA-48; test: microbe, parasite or virus in culture; settings: for MIC K. pneumoniae OXA-48, 12.5% MHB / MIC K. pneumoniae OXA-48, full MHB: carbapenem-resistant, 16–20 h at 37 °C; for MIC K. pneumoniae OXA-48, 12.5% MHB: 12.5% MHB pH 7.4; for MIC K. pneumoniae OXA-48, full MHB: full MHB pH 7.4; for MIC K. pneumoniae OXA-48: supplement CSV
Summary of the method: as §1

[3] = test system: P. aeruginosa PA14 2P4 (pmrB); test: microbe, parasite or virus in culture; settings: for MIC P. aeruginosa PA14 2P4 (pmrB), 12.5% MHB / MIC P. aeruginosa PA14 2P4 (pmrB), full MHB: polymyxin B resistant strain, 16–20 h at 37 °C; for MIC P. aeruginosa PA14 2P4 (pmrB), 12.5% MHB: 12.5% MHB pH 7.4; for MIC P. aeruginosa PA14 2P4 (pmrB), full MHB: full MHB pH 7.4; for MIC P. aeruginosa PA14 2P4: supplement CSV
Summary of the method: as §1

[4] = test system: P. aeruginosa PA14; test: microbe, parasite or virus in culture; settings: for MIC P. aeruginosa PA14, 12.5% MHB: 12.5% MHB pH 7.4; for MIC P. aeruginosa PA14, 12.5% MHB / MIC P. aeruginosa PA14, full MHB: 16–20 h at 37 °C, two different duplicate MIC determinations; for MIC P. aeruginosa PA14, full MHB: full MHB pH 7.4; for MIC P. aeruginosa PA14: supplement CSV
Summary of the method: as §1

[5] = test system: P. aeruginosa ZEM-1A; test: microbe, parasite or virus in culture; settings: for MIC P. aeruginosa ZEM-1A, 12.5% MHB: 12.5% MHB pH 7.4; for MIC P. aeruginosa ZEM-1A: supplement CSV
Summary of the method: as §1

[6] = test system: P. aeruginosa ZEM9A; test: microbe, parasite or virus in culture; settings: for MIC P. aeruginosa ZEM9A, 12.5% MHB / MIC P. aeruginosa ZEM9A, full MHB: clinical isolate, 16–20 h at 37 °C; for MIC P. aeruginosa ZEM9A, 12.5% MHB: 12.5% MHB pH 7.4; for MIC P. aeruginosa ZEM9A, full MHB: full MHB pH 7.4; for MIC P. aeruginosa ZEM9A: supplement CSV
Summary of the method: as §1

[7] = test system: E. coli BW25113 WT; settings: Table S1, 16-20 h at 37 °C; for MIC E. coli BW25113 WT, 12.5% MH: 12.5% Müller-Hinton medium pH 7.4; for MIC E. coli BW25113 WT, Full MH: full Müller-Hinton medium pH 7.4
Summary of the method: (§2)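 Log-phase cells, ~5∙10^5 CFU/mL, were exposed to peptide serially halved from 64 μg/mL in full or 12.5% MH medium (pH 7.4) at 37 °C for 16-20 h. The sbmA::kan strain was precultured with 25 mg/L kanamycin. The lowest concentration without visible growth, with MTT added, was taken as MIC.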

[8] = test system: E. coli BW25113 sbmA::kan; settings: Table S1, sbmA::kan mutant, 16-20 h at 37 °C; for MIC E. coli BW25113 SbmA-, 12.5% MH: 12.5% Müller-Hinton medium pH 7.4
Summary of the method: as §2

[9] = test system: P. aeruginosa PA14 4.13 (phoQ); settings: for MIC P. aeruginosa PA14 4.13 (phoQ), 12.5% MHB / MIC P. aeruginosa PA14 4.13 (phoQ), full MHB: polymyxin B resistant strain, 16–20 h at 37 °C; for MIC P. aeruginosa PA14 4.13 (phoQ), 12.5% MHB: 12.5% MHB pH 7.4; for MIC P. aeruginosa PA14 4.13 (phoQ), full MHB: full MHB pH 7.4; for MIC P. aeruginosa PA14 4.13: supplement CSV
[10] = test system: P. aeruginosa PA14 4.18 (pmrB); settings: for MIC P. aeruginosa PA14 4.18 (pmrB), 12.5% MHB / MIC P. aeruginosa PA14 4.18 (pmrB), full MHB: polymyxin B resistant strain, 16–20 h at 37 °C; for MIC P. aeruginosa PA14 4.18 (pmrB), 12.5% MHB: 12.5% MHB pH 7.4; for MIC P. aeruginosa PA14 4.18 (pmrB), full MHB: full MHB pH 7.4; for MIC P. aeruginosa PA14 4.18: supplement CSV
[11] = test system: human red blood cells; test: Hemolysis assay, minimum hemolytic concentration; settings: for Haemolysis on hRBC, MHC: 2.5% human red blood cells (final) in 10 mM phosphate, 150 mM NaCl, pH 7.4, 25 °C, 4 h, visual inspection; for MHC human red blood cells: supplement CSV
[12] = clinical isolate, 16–20 h at 37 °C, cells marked c: single measurement (in duplicates)

Substance	MIC E. cloacae, 12.5% MHB [1]	MIC E. cloacae, full MHB [1]	MIC E. cloacae ([1]; 12.5% MH pH 7.4)	MIC E. cloacae ([1]; full MH pH 7.4)	MIC K. pneumoniae OXA-48, 12.5% MHB [2]	MIC K. pneumoniae OXA-48, full MHB [2]	MIC K. pneumoniae OXA-48 ([2]; 12.5% MH pH 7.4)	MIC K. pneumoniae OXA-48 ([2]; full MH pH 7.4)	MIC P. aeruginosa PA14 2P4 (pmrB), 12.5% MHB [3]	MIC P. aeruginosa PA14 2P4 (pmrB), full MHB [3]	MIC P. aeruginosa PA14 2P4 ([3]; 12.5% MH pH 7.4)	MIC P. aeruginosa PA14 2P4 ([3]; full MH pH 7.4)	MIC P. aeruginosa PA14, 12.5% MHB [4]	MIC P. aeruginosa PA14, full MHB [4]	MIC P. aeruginosa PA14 ([4]; 12.5% MH pH 7.4)	MIC P. aeruginosa PA14 ([4]; full MH pH 7.4)	MIC P. aeruginosa ZEM-1A, 12.5% MHB [5, 12]	MIC P. aeruginosa ZEM-1A ([5]; 12.5% MH pH 7.4)	MIC P. aeruginosa ZEM9A, 12.5% MHB [6]	MIC P. aeruginosa ZEM9A, full MHB [6]	also measured
VDKPPYLPRPRPPRRIYNR [sr-Onc] (VDKPPYLPRPRPPRRIYNR-NH2; also: all 19 residues stereorandomized (1:1 L/D mixture))	8 µg/mL	> 64 µg/mL	8 µg/mL	>64 µg/mL	>64/>64 μg/mL	>64/>64 μg/mL	>64 µg/mL	>64 µg/mL	16 µg/mL	> 64 µg/mL	16 µg/mL	>64 µg/mL	32 µg/mL	> 64 µg/mL	32 µg/mL	>64 µg/mL	>64/64 ^c μg/mL	64 µg/mL	32 µg/mL	> 64 µg/mL	MIC P. aeruginosa ZEM-1A, full MHB ([5]; clinical isolate, full MHB pH 7.4, 16–20 h at 37 °C, cells marked c: single measurement (in duplicates)): >64/64 ^c μg/mL; MIC P. aeruginosa ZEM-1A ([5]; full MH pH 7.4): >64 µg/mL; MIC P. aeruginosa ZEM9A ([6]; 12.5% MH pH 7.4): 32 µg/mL; MIC P. aeruginosa ZEM9A ([6]; full MH pH 7.4): >64 µg/mL; MIC E. coli BW25113 WT, 12.5% MH [7]: 8 µg/mL; MIC E. coli BW25113 WT, Full MH [7]: > 64 µg/mL; MIC E. coli BW25113 SbmA-, 12.5% MH [8]: 8 to 16 µg/mL; MIC E. coli BW25113 SbmA-, Full MH ([8]; full Müller-Hinton medium pH 7.4): > 64 µg/mL; MIC P. aeruginosa PA14 4.13 (phoQ), 12.5% MHB [9]: 16 µg/mL; MIC P. aeruginosa PA14 4.13 (phoQ), full MHB [9]: > 64 µg/mL; MIC P. aeruginosa PA14 4.13 ([9]; 12.5% MH pH 7.4): 16 µg/mL; MIC P. aeruginosa PA14 4.13 ([9]; full MH pH 7.4): >64 µg/mL; MIC P. aeruginosa PA14 4.18 (pmrB), 12.5% MHB [10]: 32 µg/mL; MIC P. aeruginosa PA14 4.18 (pmrB), full MHB [10]: > 64 µg/mL; MIC P. aeruginosa PA14 4.18 ([10]; 12.5% MH pH 7.4): 32 µg/mL; MIC P. aeruginosa PA14 4.18 ([10]; full MH pH 7.4): >64 µg/mL; Haemolysis on hRBC, MHC [11]: >1000 µg/mL; MHC human red blood cells [11]: >1000 µg/mL
VDKPPYLPRPRPPRRIYNR-NH2 [L-Onc, reference compound]	1 µg/mL	32 µg/mL	1 µg/mL	32 µg/mL	2 µg/mL	32 µg/mL	2 µg/mL	32 µg/mL	16 µg/mL	> 64 µg/mL	16 µg/mL	>64 µg/mL	32 µg/mL	> 64 µg/mL	32 µg/mL	>64 µg/mL	8 to 16 µg/mL	8 to 16 µg/mL	32 µg/mL	> 64 µg/mL	MIC P. aeruginosa ZEM9A ([6]; 12.5% MH pH 7.4): 32 µg/mL; MIC P. aeruginosa ZEM9A ([6]; full MH pH 7.4): >64 µg/mL; MIC E. coli BW25113 WT, 12.5% MH [7]: 4 µg/mL; MIC E. coli BW25113 WT, Full MH [7]: 16 to 32 µg/mL; MIC E. coli BW25113 SbmA-, 12.5% MH [8]: 8 µg/mL; MIC P. aeruginosa PA14 4.13 (phoQ), 12.5% MHB [9]: 16 µg/mL; MIC P. aeruginosa PA14 4.13 (phoQ), full MHB [9]: > 64 µg/mL; MIC P. aeruginosa PA14 4.13 ([9]; 12.5% MH pH 7.4): 16 µg/mL; MIC P. aeruginosa PA14 4.13 ([9]; full MH pH 7.4): >64 µg/mL; MIC P. aeruginosa PA14 4.18 (pmrB), 12.5% MHB [10]: 32 µg/mL; MIC P. aeruginosa PA14 4.18 (pmrB), full MHB [10]: > 64 µg/mL; MIC P. aeruginosa PA14 4.18 ([10]; 12.5% MH pH 7.4): 32 µg/mL; MIC P. aeruginosa PA14 4.18 ([10]; full MH pH 7.4): >64 µg/mL; Haemolysis on hRBC, MHC [11]: >1000 µg/mL; MHC human red blood cells [11]: >1000 µg/mL
